From US20260015350A1, “AZAQUINAZOLINE PAN-KRAS INHIBITORS” (Mirati Therapeutics, Inc., priority 2022, published 2026)

Assays:
KRas^G12D = molecular target: T1, KRas^G12D (Homo sapiens, UniProt P01116, G12D); assay: KRas binding assay (TR-FRET tracer displacement), KRas G12D
T1 construct: Biotinylated KRas (corresponding to amino acids 1-169, produced at Accelegan Inc.); biotin (biotinylated); purchased Accelegan Inc

[1] = tested on: KRas-mediated phosphorylation of ERK in H727 cells; assay: Inhibition of KRas-mediated phosphorylation of ERK (Cisbio HTRF pERK), H727 cells; assay type: cell-based; conditions: Homo sapiens; for IC50: NCI-H727, H727 cells, HTRF pERK; for inhibition at 0.1 µM: NCI-H727, 3 h, single point, 100 nM compound, 3 hrs, H727 cells
How it was run: (§1)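 Signal read by HTRF (d2/Cryptate antibody pair, 2 hr room-temperature incubation on lysate). Cells: 6,000 per well, 3 hr compound exposure. Titration: 10 uM highest, 3-fold, 10 points.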

[2] = tested on: KRas-mediated phosphorylation of ERK in AsPC-1 cells; assay: Inhibition of KRas-mediated phosphorylation of ERK (Cisbio HTRF pERK), AsPC-1 cells; assay type: cell-based; conditions: Homo sapiens; for IC50: ASPC1, AsPC-1 cells, HTRF pERK; for inhibition at 0.1 µM: ASPC1, 3 h, single point, 100 nM compound, 3 hrs, AsPC-1 cells
How it was run: as §1

KRas^G12R = molecular target: T2, KRas^G12R (Homo sapiens, UniProt P01116, G12R); assay: KRas binding assay (TR-FRET tracer displacement), KRas G12R
T2 construct: Biotinylated KRas (corresponding to amino acids 1-169, produced at Accelegan Inc.); biotin (biotinylated); purchased Accelegan Inc

[3] = tested on: KRas-mediated phosphorylation of ERK in H460 cells; assay: Inhibition of KRas-mediated phosphorylation of ERK (Cisbio HTRF pERK), H460 cells; assay type: cell-based; conditions: Homo sapiens; for inhibition at 0.1 µM: NCI-H460, 3 h, single point, 100 nM compound, 3 hrs
Description: (§2) Inhibition of KRas Phosphorylation of ERK (HTRF) by Exemplary Compounds of Formula (I) Cisbio HTRF Advanced PERK Assay Catalog #64[…] […] Add 10 mL of media to stop trypsinizing. Pipette the cells into a conical bottom 50 mL centrifuge tube and centrifuge 5 min×1000 rpm. […] Re-suspend the cell pellet in media, take a cell count, and then adjust the cell density using fresh media. […] Seed 6,000 cells into cell culture plate with 50 μL media. […] Use Tecan to complete the compound addition. Compounds start from 10 uM top, 3-fold dilution, and 10 doses. The final DMSO concentration is 0.8%. Dispensed 0.2 uM Trametinib as Min control. […] Incubate cell plate for 3 hrs in the incubator. […] Dilute 1 volume of 4× lysis buffer with 3 volumes of deionized water. […] Keep lysis buffer on the ice. […] At the end of the compound treatment, flick-off the media. […] Add 35 μL of lysis buffer per well using a Multidrop Combi. Then place on a plate agitator shaking at 300 rpm at 4° C. for 40 mins. […] Make up the HTRF antibody buffer. For each assay plate, mix 50 μL of d2-conjugate antibody with 950 μL of detection buffer. Similarly, mix 50 μL of Cryptate antibody with 950 μL of detection buffer. Then mix the two diluted antibodies together. […] Dispense 3.4 μL the antibody buffer to wells of an empty assay plate. Seal the plate and centrifuge plate 30 sec×1000 rpm. […] At the end of the 4° C. lysis, centrifuge the lysate plates 3 mins×1500 rpm. […] Use the Bravo to transfer 13.6 μL of lysate from cell culture plate to assay plate. Then incubate assay plate for 2 hrs at room temperature. 8. At the end of incubation, read plate on the Envision after centrifuging plate 30 sec×1000 rpm.

KRas^G12V = molecular target: T3, KRas^G12V (Homo sapiens, UniProt P01116, G12V); assay: KRas binding assay (TR-FRET tracer displacement), KRas G12V
T3 construct: Biotinylated KRas (corresponding to amino acids 1-169, produced at Accelegan Inc.); biotin (biotinylated); purchased Accelegan Inc

[4] = tested on: KRas-mediated phosphorylation of ERK in HCT116 cells; assay: Inhibition of KRas-mediated phosphorylation of ERK (Cisbio HTRF pERK), HCT116 cells; assay type: cell-based; conditions: Homo sapiens, HCT-116, 3 h, single point, 100 nM compound, 3 hrs
Description: as §2

[5] = tested on: KRas-mediated phosphorylation of ERK in A549 cells; assay: Inhibition of KRas-mediated phosphorylation of ERK (Cisbio HTRF pERK), A549 cells; assay type: cell-based; conditions: Homo sapiens, HTRF pERK
Description: as §2

T3 sequence (P01116 1-169 isoform P01116-2 G12V): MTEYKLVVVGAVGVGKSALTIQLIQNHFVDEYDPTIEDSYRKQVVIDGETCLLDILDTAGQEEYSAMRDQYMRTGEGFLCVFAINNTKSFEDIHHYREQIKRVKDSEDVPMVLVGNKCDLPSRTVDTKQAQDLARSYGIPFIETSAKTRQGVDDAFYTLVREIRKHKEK
T1 sequence (P01116 1-169 isoform P01116-2 G12D): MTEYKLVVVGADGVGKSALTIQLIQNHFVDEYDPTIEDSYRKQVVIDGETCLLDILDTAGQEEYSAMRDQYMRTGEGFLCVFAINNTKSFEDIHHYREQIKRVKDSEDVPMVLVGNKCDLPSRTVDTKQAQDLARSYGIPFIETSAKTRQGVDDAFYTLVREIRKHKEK
T2 sequence (P01116 1-169 isoform P01116-2 G12R): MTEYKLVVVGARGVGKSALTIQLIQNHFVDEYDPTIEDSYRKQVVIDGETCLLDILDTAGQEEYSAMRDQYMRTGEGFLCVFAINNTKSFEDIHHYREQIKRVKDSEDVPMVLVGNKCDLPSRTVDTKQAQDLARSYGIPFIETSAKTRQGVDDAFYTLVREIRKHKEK

IC50 (KRas^G12D) [nM] | IC50 [1] [nM] | IC50 [2] [nM] | IC50 (KRas^G12R) [nM] | IC50 (KRas^G12V) [nM] | IC50 [5] [nM] | IC50 ([3]; NCI-H460, HTRF pERK) [nM] | Structure (SMILES) | inhibition at 0.1 µM [3] [%] | inhibition at 0.1 µM [4] [%] | inhibition at 0.1 µM [1] [%] | inhibition at 0.1 µM [2] [%]
< 2 | 603 | 312 | < 2 | < 2 | 822 |  | CCc1c(F)ccc2cc(O)cc(-c3ncc4c(N5CCC[S+]([O-])CC5)nc(OC[C@@]56CCCN5C[C@H](F)C6)nc4c3F)c12 (stereo partly drawn) [Example 558, 4-(7-(8-ethyl-7-fluoro-3-hydroxynaphthalen-1-yl)-8-fluoro-2-(((2R,7aS)-2-fluorohexahydro-1H-pyrrolizin-7a-yl)methoxy)pyrido[4,3-d]pyrimidin-4-yl)-1,4-thiazepane 1-oxide] |  |  |  | 
45 | > 10000 |  | 37 | 10 |  |  | CCc1c(F)ccc2cc(O)cc(-c3ncc4c(NC[C@@H]5C[C@H](CO)NC5=O)nc(OC[C@@]56CCCN5C[C@H](F)C6)nc4c3F)c12 [Example 576, (3S,5R)-3-(((7-(8-ethyl-7-fluoro-3-hydroxynaphthalen-1-yl)-8-fluoro-2-(((2R,7aS)-2-fluorotetrahydro-1H-pyrrolizin-7a(5H)-yl)methoxy)pyrido[4,3-d]pyrimidin-4-yl)amino)methyl)-5-(hydroxymethyl)pyrrolidin-2-one] | -3 | -15 | -2 | 1
2 | 833 | 505 | 2 | 3 | 494 |  | CCc1c(F)ccc2cc(O)cc(-c3ncc4c(N5CC6C(=O)NC(=O)C6C5C)nc(OC[C@@]56CCCN5C[C@H](F)C6)nc4c3F)c12 (stereo partly drawn) [Example 590, 5-(7-(8-ethyl-7-fluoro-3-hydroxynaphthalen-1-yl)-8-fluoro-2-(((2R,7aS)-2-fluorohexahydro-1H-pyrrolizin-7a-yl)methoxy)pyrido[4,3-d]pyrimidin-4-yl)-4-methyltetrahydropyrrolo[3,4-c]pyrrole-1,3(2H,3aH)-dione] |  |  |  | 
 | 245 | 1540 |  |  | 357 | 138 | CCc1c(F)ccc2cc(O)cc(-c3ncc4c(N5C[C@H]6C[C@@H](C5)C(=O)NC6=O)nc(OC[C@@]56CCCN5C[C@H](F)C6)nc4c3F)c12 [Example 591, (1R,5S)-7-(7-(8-ethyl-7-fluoro-3-hydroxynaphthalen-1-yl)-8-fluoro-2-(((2R,7aS)-2-fluorotetrahydro-1H-pyrrolizin-7a(5H)-yl)methoxy)pyrido[4,3-d]pyrimidin-4-yl)-3,7-diazabicyclo[3.3.1]nonane-2,4-dione] |  |  |  | 
527 | 3410 | > 10000 | 253 | 97 |  |  | CCc1c(F)ccc2cc(O)cc(-c3ncc4c(N5Cc6c(C(=O)N(C)C)nn(C)c6C5)nc(OC[C@@]56CCCN5C[C@H](F)C6)nc4c3F)c12 [Example 867, 5-(7-(8-ethyl-7-fluoro-3-hydroxynaphthalen-1-yl)-8-fluoro-2-(((2R,7aS)-2-fluorotetrahydro-1H-pyrrolizin-7a(5H)-yl)methoxy)pyrido[4,3-d]pyrimidin-4-yl)-N,N, 1-trimethyl-1,4,5,6-tetrahydropyrrolo[3,4-c]pyrazole-3-carboxamide] |  |  |  | 
92 | 3020 | 2100 | 40 | 43 |  |  | CCc1c(F)ccc2cc(O)cc(-c3ncc4c(N5CC(C)(O)C6CC5C6)nc(OC[C@@]56CCCN5C[C@H](F)C6)nc4c3F)c12 (stereo partly drawn) [Example 893, 2-(7-(8-ethyl-7-fluoro-3-hydroxynaphthalen-1-yl)-8-fluoro-2-(((2R,7aS)-2-fluorotetrahydro-1H-pyrrolizin-7a(5H)-yl)methoxy)pyrido[4,3-d]pyrimidin-4-yl)-4-methyl-2-azabicyclo[3.1.1]heptan-4-ol] |  |  |  | 

The next lines start with the molecule.

Structure (SMILES) | IC50 (KRas^G12D) [nM] | IC50 [1] [nM] | IC50 [2] [nM] | IC50 (KRas^G12R) [nM] | IC50 (KRas^G12V) [nM] | IC50 [5] [nM] | IC50 ([3]; NCI-H460, HTRF pERK) [nM] | inhibition at 0.1 µM [3] [%] | inhibition at 0.1 µM [4] [%] | inhibition at 0.1 µM [1] [%] | inhibition at 0.1 µM [2] [%]
CCc1c(F)ccc2cc(O)cc(-c3ncc4c(N5CCC[C@@](C)(O)C5)nc(OCC5(CN)CC5)nc4c3F)c12 [Example 536, (R)-1-(2-((1-(aminomethyl)cyclopropyl)methoxy)-7-(8-ethyl-7-fluoro-3-hydroxynaphthalen-1-yl)-8-fluoropyrido[4,3-d]pyrimidin-4-yl)-3-methylpiperidin-3-ol] | 5 | 3440 | 4550 | 9 | 5 |  |  | -9 | 9 |  | 
CCc1c(F)ccc2cc(O)cc(-c3ncc4c(NC5CC6(CCCO6)C5)nc(OC[C@@]56CCCN5C[C@H](F)C6)nc4c3F)c12 (stereo partly drawn) [Example 554, 4-(4-(5-oxaspiro[3.4]octan-2-ylamino)-8-fluoro-2-(((2R,7aS)-2-fluorohexahydro-1H-pyrrolizin-7a-yl)methoxy)pyrido[4,3-d]pyrimidin-7-yl)-5-ethyl-6-fluoronaphthalen-2-ol] | 79 | 410 | 2380 | 10 | 9 | 742 |  |  |  |  | 
CCc1c(F)ccc2cc(O)cc(-c3ncc4c(NC5CCCc6c(C(=O)N(C)C)nn(C)c65)nc(OC[C@@]56CCCN5C[C@H](F)C6)nc4c3F)c12 (stereo partly drawn) [Example 672, 7-((7-(8-ethyl-7-fluoro-3-hydroxynaphthalen-1-yl)-8-fluoro-2-(((2R,7aS)-2-fluorohexahydro-1H-pyrrolizin-7a-yl)methoxy)pyrido[4,3-d]pyrimidin-4-yl)amino)-N,N,1-trimethyl-4,5,6,7-tetrahydro-1H-indazole-3-carboxamide] | 8 | 1260 | 469 | 4 | 5 | 541 |  |  |  |  | 
CCc1c(F)ccc2cc(O)cc(-c3ncc4c(N5CCC[C@@](C)(O)C5)nc(OCC5(CN(C)C)CC5C)nc4c3F)c12 (stereo partly drawn) [Example 702, (3R)-1-(2-((1-((dimethylamino)methyl)-2-methylcyclopropyl)methoxy)-7-(8-ethyl-7-fluoro-3-hydroxynaphthalen-1-yl)-8-fluoropyrido[4,3-d]pyrimidin-4-yl)-3-methylpiperidin-3-ol] |  | 149 | 32 |  |  |  |  | 61 | 37 | 7 | 56
CCc1c(F)ccc2cc3[nH]ncc3c(-c3ncc4c(N5CCC[C@]6(C5)NC(=O)NC6=O)nc(OCC56CCCN5CCC6)nc4c3F)c12 [Example 884, (5R)-7-(7-(5-ethyl-6-fluoro-1H-benzo[f]indazol-4-yl)-8-fluoro-2-((tetrahydro-1H-pyrrolizin-7a(5H)-yl)methoxy)pyrido[4,3-d]pyrimidin-4-yl)-1,3,7-triazaspiro[4.5]decane-2,4-dione] | < 2 | 2810 | 3180 | < 2 | < 2 |  |  |  |  |  | 
CCc1c(F)ccc2cc(O)cc(-c3ncc4c(N5CC6CCC(CCC(=O)NC)(C6)C5)nc(OC[C@@]56CCCN5C[C@H](F)C6)nc4c3F)c12 (stereo partly drawn) [Example 909, 3-(3-(7-(8-ethyl-7-fluoro-3-hydroxynaphthalen-1-yl)-8-fluoro-2-(((2R,7aS)-2-fluorotetrahydro-1H-pyrrolizin-7a(5H)-yl)methoxy)pyrido[4,3-d]pyrimidin-4-yl)-3-azabicyclo[3.2.1]octan-1-yl)-N-methylpropanamide] | 24 | 1310 | 5160 | 7 | 7 |  |  |  |  |  | 
CCc1c(F)ccc2cc(O)cc(-c3ncc4c(N5CC6CCC(CCC(N)=O)(C6)C5)nc(OC[C@@]56CCCN5C[C@H](F)C6)nc4c3F)c12 (stereo partly drawn) [Example 910, 3-(3-(7-(8-ethyl-7-fluoro-3-hydroxynaphthalen-1-yl)-8-fluoro-2-(((2R,7aS)-2-fluorotetrahydro-1H-pyrrolizin-7a(5H)-yl)methoxy)pyrido[4,3-d]pyrimidin-4-yl)-3-azabicyclo[3.2.1]octan-1-yl)propanamide] | 22 | 1670 | 8160 | 9 | 8 |  |  |  |  |  | 
